Data from PMC10290954 (Nature Metabolism, 2023).

How the values were obtained:
Format in all cases: cell-based
human islets [1] = assay: Human islet perifusion, insulin secretion (Fig. 2); settings: human islets stimulated with TZP; for TZP insulin secretion iAUC, Percent Control: % of Average Control (PBS); for TZP insulin secretion iAUC: PBS or antagonist(s) as labelled
Method: (§1) Human islets were obtained from both the Alberta Diabetes Institute and the Integrated Islet Distribution Program. All islets were obtained from consenting donors. Details for the general perifusion protocol have been previously described[21] and are similar to the mouse perifusion protocol. […] Each set of human islets consisted of n = 3 for each condition. These were averaged to generate a single data point (Fig. 2c). Insulin values were measured with a Lumit insulin immunoassay (Promega) using an EnVision plate reader (PerkinElmer). For the glucagon secretion experiments (Fig. 3), the average glucagon values were calculated during control (minutes 35–45) and stimulated (minutes 55–65) conditions. All peptides were used at 30 nM concentrations based on previous work[16]. Amino acids were used at concentrations of 3 mM based on previous work[11]. Glucagon was measured with a Lumit Glucagon Immunoassay Kit (cat. no. CS3037A02; Promega) using an EnVision plate reader (PerkinElmer). Somatostatin was measured with an ELISA assay (cat. no. FEK-060-14; Phoenix Pharmaceuticals). All data are expressed as the measured concentration relative to both flow rate and islet number (insulin, ng ml^–1 × (1/200 µl ml^–1) × (1/75 islets); glucagon, pM × (1/200 µl ml^–1) × (1/75 islets); somatostatin, pg ml^–1 × (1/200 µl ml^–1) × (1/75 islets))[49]. Human pancreatic islets and pancreas tissue were isolated from deceased donors under ethical approval from the Human Research Ethics Board of the University of Alberta (Pro00013094, Pro00001754) and obtained from the NIDDK-funded Integrated Islet Distribution Program (IIDP) (RRID: SCR _014387). All donors’ families gave informed consent for the use of pancreatic tissue in research and were not financially compensated.

mouse islets [2] = assay: Mouse islet perifusion with incretin receptor antagonists (Fig. 1b), insulin secretion; settings: antagonists 1 μM, tirzepatide 0–100 nM
Method: (§2) In brief, islets were individually picked to ensure consistency across chambers with respect to both number and size. […] Insulin values were measured with a Lumit insulin immunoassay (Promega) using an EnVision plate reader (PerkinElmer).

mouse islets [3] = assay: Mouse islet perifusion, control and Gipr beta-cell knockout islets ± Ex9 (Fig. 1a), insulin secretion; settings: Ex9 1 μM
Method: as §2

human islets [4] = assay: Human islet perifusion, insulin secretion with Ex9 or hGIP(3-30) (Extended Data Fig. 2); parameters: key to iAUC: insulin iAUC, ng/ml × (1/200 µl/ml) × (1/75 islets), baseline = first point; settings: insulin secretion; for Mean (One way ANOVA): iAUC, Control = 1, mean of n = 3; for iAUC: TZP + PBS or labelled antagonist
Method: as §1
The integrated area under the curve (iAUC) was calculated for both glucose and tirzepatide stimulated insulin secretion using the value of the first time point as the baseline. All values are mean + /- SEM, n = 3/group. A one-way ANOVA with Tukey’s posthoc test was used. Source data

## exendin(9-39) [Ex9]
Human islets [1]; donor R434, replicate 1
  TZP insulin secretion iAUC, Percent Control: 81.0 %Control
  TZP insulin secretion iAUC: 149.1
Human islets [1]; donor R434, replicate 2
  TZP insulin secretion iAUC, Percent Control: 70.5 %Control
  TZP insulin secretion iAUC: 129.7
Human islets [1]; donor R434, replicate 3
  TZP insulin secretion iAUC, Percent Control: 110.7 %Control
  TZP insulin secretion iAUC: 203.7
Human islets [1]; donor R443, replicate 1
  TZP insulin secretion iAUC, Percent Control: 152.6 %Control
  TZP insulin secretion iAUC: 9.764
Human islets [1]; donor R443, replicate 2
  TZP insulin secretion iAUC, Percent Control: 43.9 %Control
  TZP insulin secretion iAUC: 2.809
Human islets [1]; donor R443, replicate 3
  TZP insulin secretion iAUC, Percent Control: 123.9 %Control
  TZP insulin secretion iAUC: 7.929
Human islets [1]; donor R444, replicate 1
  TZP insulin secretion iAUC, Percent Control: 49.3 %Control
  TZP insulin secretion iAUC: 12.31
Human islets [1]; donor R444, replicate 2
  TZP insulin secretion iAUC, Percent Control: 46.5 %Control
  TZP insulin secretion iAUC: 11.61
Human islets [1]; donor R444, replicate 3
  TZP insulin secretion iAUC, Percent Control: 59.5 %Control
  TZP insulin secretion iAUC: 14.86
Human islets [1]; donor R448, replicate 1
  TZP insulin secretion iAUC, Percent Control: 95.4 %Control
  TZP insulin secretion iAUC: 169.1
Human islets [1]; donor R448, replicate 2
  TZP insulin secretion iAUC, Percent Control: 86.1 %Control
  TZP insulin secretion iAUC: 152.5
Human islets [1]; donor R448, replicate 3
  TZP insulin secretion iAUC, Percent Control: 78.6 %Control
  TZP insulin secretion iAUC: 139.2
Human islets [1]; donor R449, replicate 1
  TZP insulin secretion iAUC, Percent Control: 10.8 %Control
  TZP insulin secretion iAUC: 14.8
Human islets [1]; donor R449, replicate 2
  TZP insulin secretion iAUC, Percent Control: 15.5 %Control
  TZP insulin secretion iAUC: 21.27
Human islets [1]; donor R449, replicate 3
  TZP insulin secretion iAUC, Percent Control: 25.1 %Control
  TZP insulin secretion iAUC: 34.32
Human islets [1]; donor R451, replicate 1
  TZP insulin secretion iAUC, Percent Control: 39.0 %Control
  TZP insulin secretion iAUC: 36.08
Human islets [1]; donor R451, replicate 2
  TZP insulin secretion iAUC, Percent Control: 22.6 %Control
  TZP insulin secretion iAUC: 20.91
Human islets [1]; donor R451, replicate 3
  TZP insulin secretion iAUC, Percent Control: 24.7 %Control
  TZP insulin secretion iAUC: 22.84
Human islets [1]; donor S1472, replicate 1
  TZP insulin secretion iAUC, Percent Control: 91.9 %Control
  TZP insulin secretion iAUC: 50.05
Human islets [1]; donor S1472, replicate 2
  TZP insulin secretion iAUC, Percent Control: 146.0 %Control
  TZP insulin secretion iAUC: 79.46
Human islets [1]; donor S1472, replicate 3
  TZP insulin secretion iAUC, Percent Control: 127.6 %Control
  TZP insulin secretion iAUC: 69.48
Human islets [1]; donor S2886, replicate 1
  TZP insulin secretion iAUC, Percent Control: 19.6 %Control
  TZP insulin secretion iAUC: 36.46
Human islets [1]; donor S2886, replicate 2
  TZP insulin secretion iAUC, Percent Control: 20.0 %Control
  TZP insulin secretion iAUC: 37.22
Human islets [1]; donor S2886, replicate 3
  TZP insulin secretion iAUC, Percent Control: 50.9 %Control
  TZP insulin secretion iAUC: 94.97
Mouse islets [2]
  Effect on tirzepatide-stimulated insulin secretion: prevented insulin secretion in response to tirzepatide
Mouse islets [3]
  Effect on tirzepatide-stimulated insulin secretion: completely blocked insulin secretion in response to tirzepatide
Human islets [4]; donor R464, R464 (3-30) TZP
  Mean (One way ANOVA): 1.267
Human islets [4]; donor S5423, SAMN5423 (3-30) TZP
  Mean (One way ANOVA): 1.135
Human islets [4]; donor R464, replicate 1
  iAUC: 1.277
Human islets [4]; donor R464, replicate 2
  iAUC: 1.0253
Human islets [4]; donor R464, replicate 3
  iAUC: 1.497
Human islets [4]; donor S5423, replicate 1
  iAUC: 1.294
Human islets [4]; donor S5423, replicate 2
  iAUC: 1.08
Human islets [4]; donor S5423, replicate 3
  iAUC: 1.031
